The values that follow come from patent US6069132A, “Phosphazole compounds” (priority 1997, dated 2000).

≈ marks a conversion by molar mass, not a printed value. Read-outs that look alike come from different tables or passages of the source.

The subject of one series is IL-1β. The experiment in a line: Inhibition of IL-1β production in LPS-stimulated THP-1 cells (ELISA). The format is cell-based, human. As to conditions: for IC50: Homo sapiens. As for the experimental part: Cell line. THP-1 cells (human monocyte) were maintained in RPMI 1640 medium containing 25 mM Hepes buffer, 2 mM L-glutamine, 50 units of penicillin per mL, 50 μg of streptomycin sulfate per mL, and 10% heat-inactivated fetal bovine serum (FBS) in a humidified incubator containing 5% CO2. The cells were split 1:4 weekly as recommended by the American Type Culture Collection (ATCC).
TNFα assay. Varying concentrations of the test compound or control compound were added to THP-1 cells plated at a density of 1×10^6cells/mL in 600 μL of 10% RPMI in a 48 well plate. After one hour the cells were stimulated with 0.5 μg of lipopolysaccharide (LPS; Sigma, lot number 43H40491) per mL. Six hours post-stimulation supernatants were collected and assayed for TNFα or IL-1β production using a commercially available cytokine detection ELISA (Enzyme Linked Immunosorbent Assay) kit according to the suppliers instructions. A suitable assay kit may be obtained from Biosource, or R and D systems. A novel xanthine analog, HWA-3138, having the structure (as shown below) was used as the control compound (30) in this study to monitor the response of the THP-l cells. Xanthine analogs are known inhibitors of TNFα but not IL-1β. In the following experiments compound HWA-3138 was used as a positive control. [drawing 58] […]
THP-1 cells were cultured and IL-1β inhibition assays were conducted as described for TNFα in Example 46, except a commercially available IL-1β assay kit, obtained from R and D Systems, Minneapolis, Minn., was used instead of the TNFα kit.
With reference now to FIG. 8, for each concentration of T70241 tested, the membrane bound IL-1β was separated from the IL-1β found free in the culture medium at 6 hours post-LPS stimulation as described in Example 46 for TNFα, and the percent inhibition of each fraction was graphed.
For orientation: ELISA stands for enzyme-linked immunosorbent assay.

A further series has as its system HCMV (Town strain). The experiment in a line: HCMV plaque reduction (CPE) assay in MRC-5 cells. It is filed as cell-based, human cytomegalovirus. As for the experimental part: The adenine analog phosphazole (compound T70241) was assayed for antiviral activity using a HCMV plaque reduction assay, in accordance with known methods such as that described in U.S. Pat. No. 5,446,045.
(§1) Cell Culture. Vero (African Green Monkey kidney cells) and MRC-5 (diploid Human Embryonic Lung fibroblasts) cells were obtained from the American Type Culture Collection (ATCC) and were grown in minimal essential medium (MEM) with Earl's salts and glutamine (GIBCO BRL, Life Technologies, Inc.) with 10% heat inactivated fetal bovine serum (GIBCO BRL) and penicillin (100 μg/mL)/streptomycin (100 μg/mL).
CMV Cytopathic Effect (CPE) Assay. Assays were performed essentially as described by Lewis et al. (111), which report is incorporated herein by reference. MRC-5 cells (100,000 cells/well) were seeded in 24-well plates overnight. Medium was then removed and wells were rinsed once with 250 μL of 2% FCS-MEM before adding 40-50 pfu of HCMV (Town strain) to each well. After 2 hours of virus adsorption, the medium was removed and the cells were rinsed once with 2% FCS-MEM. Varying concentrations of the phosphazole compound in the culture medium (1 mL) was then added to appropriate wells and plates were incubated for 5-6 days at 37° C. in a humidified 5% CO2 atmosphere. Each concentration was tested in duplicate wells.
The extent of the plaque reduction was quantitated by removing the media and adding 200 μL of 0.1% crystal violet in 20% methanol to all wells. The crystal violet was then removed after 10 min staining at room temperature by rinsing in the sink with tap water and the plates dried overnight. The plaques were then counted using a Nikon inverted microscope.

A further series has as its system HSV-2. The experiment in a line: HSV-2 CPE assay in Vero cells. The format is cell-based. Particulars: Human alphaherpesvirus 2, Vero; Table 4.
A short description of series [1]: Cytotoxicity on growing MRC-5 cells (MTS). It is filed as cell-based, human. Particulars: human, mrc-5 cells. As for the experimental part:
as §1
(§2) Cytotoxicity Analysis. The cytotoxicity of the compound was assayed using few the CellTiter 96™ Aqueous Non-Radioactive Cell Proliferation (MTS) Assay (Promega). Briefly, viable cell number was determined by trypan blue staining and cells (MRC-5 and Vero) were resuspended in minimal essential medium (MEM) supplemented with 10% FBS (GIBCO). Eighty microliters of cell suspension (1.7×10^4 cells/well) was dispensed onto a 96-well microtiter plates. At this time 20 μL of drug (or control) was added to appropriate wells. Each concentration was assayed in quadruplicate. The plates were incubated at 37° C. in a humidified 5% CO2 atmosphere for 4 days and MTS assay was performed according to the manufacturer's instructions. The average absorbence of the sample was graphed for each concentration and the data obtained was used to calculate TC50 (the concentration necessary to give one-half maximum growth) for each compound.

Series [2] is described as follows: Cytotoxicity on static MRC-5 cells. The format is cell-based. As to conditions: human, Table 4, 50% cell death (static cells), read-out: TC50 Static MRC-5. As for the experimental part: as §1, §2
A short description of series [3]: Cytotoxicity on growing Vero cells (MTS). The format is cell-based. As to conditions: african green monkey, Table 4, 50% inhibition of logphase growing cells, read-out: TC50 Growing Vero. As for the experimental part: as §1, §2
The nature of series [4]: Cytotoxicity on static Vero cells. It is filed as cell-based. Particulars: african green monkey, Table 4, 50% cell death (static cells), read-out: TC50 Static Vero. As for the experimental part:
as §1, §2

Where [5] appears, read: Table 2, LPS-stimulated THP-1, 6 h post-stimulation, read-out: IC50 IL-1β in THP-1 cells.

With `CCCCCn1cpc2ncnc(N)c21` (stereo not shown) [T70254, 7-Amino-1-(n-pentyl)-1,3-azaphospholo[4,5-d]pyrimidine], the IC50 in the series on IL-1β (setting [5]) was 152 µg/mL (≈ 686 µM); in the series on HCMV (Town strain) (Human betaherpesvirus 5, MRC5, read-out: IC50 HCMV) it was more than 50 µg/mL; with HSV-2, more than 50 µg/mL. Moreover, the CC50 at 96 h in series [1] (Table 4, 50% inhibition of logphase growing cells, read-out: TC50 Growing MRC-5) amounted to 17.9 µg/mL (≈ 80.8 µM); in series [2], 9.25 µg/mL (≈ 41.6 µM); in series [3], 8.18 µg/mL (≈ 36.8 µM); in series [4], 18.2 µg/mL (≈ 81.8 µM).

Regarding `Nc1ncnc2pc[nH]c12` (stereo not shown) [T70241, 7-amino-1H-1,3-azaphospholo[4,5-d]pyrimidine], the “inhibition of IL-1β production” value with IL-1β (50 to 100 μg/mL, THP-1 (FIG. 6)) is recorded as “able to inhibit IL-1β production”. Besides, the “cell-associated and free IL-1β” value in the series on IL-1β (6 hours post-LPS (FIG. 8)) was “reduce both the cell-associated (intracelluar) and the free (extracellular) IL-1β”. Further, the IC50 in the series on IL-1β (setting [5]) was 16.1 µg/mL (≈ 106 µM); with IL-1β (from FIG. 6, LPS-stimulated THP-1, read-out: IC50, IL-1β production), 38.8 µg/mL (≈ 255 µM); in the series on HCMV (Town strain) (Human betaherpesvirus 5, MRC5, read-out: 50% inhibitory concentration (IC50), HCMV induced plaques), approximately 8.25 µg/mL (≈ 54.2 µM); in the series on HCMV (Town strain) (Human betaherpesvirus 5, MRC5, Table 4, read-out: IC50 HCMV), 8.08 µg/mL (≈ 53.1 µM); with HSV-2, more than 50 µg/mL. For the same molecule, the “inhibition of HCMV virus production” value in the series with HCMV (Town strain) (0.01-10 μg/mL) is “nearly logrithmic increase in inhibition of virus production”. Besides, the CC50 at 96 h is more than 50 µg/mL in series [1] (FIG. 9A, four day period, read-out: TC50, growing MRC-5 cells); more than 50 µg/mL in series [2]; more than 50 µg/mL in series [3]; more than 50 µg/mL in series [4].
